Source: patent US4224448A, “2'-(5'-Nitrofuryl) substituted quinolines” (priority 1966, dated 1980)
In brackets after ≈: the same amount, converted by molar mass. Like-named read-outs stand apart in the source and are kept apart here.

Legend:
Assay in all cases: Minimum inhibitory concentration, conventional tube dilution method
Type in all cases: cell-based
[1] = system: Candida albicans; settings: read-out: Minimal Inhibitory Concentration, Cand. Alb.
Excerpt: (§1) The activity of some of the new nitrofuryl quinoline derivatives of the present invention is exemplified in Table 1 against a gram-positive (Staph. aureus), a gram-negative (Salmonella) bacterium and a fungus (Candida albicans). Table 1 indicates the minimum inhibitory concentration of the compound under reference in mg/100 cc required in order to inhibit the growth between 1 and 6 strains of each type. The measurements have been carried out by the conventional tube dilution method at 37 degrees after 24 hours.

[2] = system: Salmonella; settings: read-out: Minimal Inhibitory Concentration, Salm.
Excerpt: as §1

[3] = system: Staph. aureus; settings: Staphylococcus aureus, read-out: Minimal Inhibitory Concentration, Staph. aureus
Excerpt: as §1

[4] = fungus, tube dilution, 37 degrees, 24 hours, between 1 and 6 strains, mg/100 cc, decimal comma
[5] = gram-negative, tube dilution, 37 degrees, 24 hours, between 1 and 6 strains, mg/100 cc, decimal comma
[6] = gram-positive, tube dilution, 37 degrees, 24 hours, between 1 and 6 strains, mg/100 cc, decimal comma

Row | Compound | MIC [1, 4] [µg/mL] | MIC [2, 5] [µg/mL] | MIC [3, 6] [µg/mL] | MIC ([2]; 24 h) [µg/mL] | MIC ([1]; 24 h) [µg/mL] | MIC ([3]; 24 h) [µg/mL]
1 | CCc1cc(-c2ccc([N+](=O)[O-])o2)c2ccc(OC)cc2n1 [C2 H5 H 5NF H H OCH3 H] | 10 (≈ 33.5 µM) | 25 (≈ 83.8 µM) | 0.01 to 0.5 (≈ 0.0335 to 1.68 µM) | – | – | –
2 | CCc1cc(-c2ccc([N+](=O)[O-])o2)c2ccc(O)cc2n1 [C2 H5 H 5NF H H OH H] | 50 (≈ 176 µM) | 5 (≈ 17.6 µM) | 0.1 to 0.5 (≈ 0.352 to 1.76 µM) | – | – | –
3 | CCc1cc(-c2ccc([N+](=O)[O-])o2)c2ccc(C)cc2n1 [C2 H5 H NF H H CH3 H] | > 50 | > 50 | 5 (≈ 17.7 µM) | – | – | –
4 | CCc1cc(-c2ccc([N+](=O)[O-])o2)c2ccccc2n1 [C2 H5 H NF H H H H, 2-ethyl-4-[2'-(5'-nitrofuryl)]quinoline] | 5 (≈ 18.6 µM) | > 50 | 0.1 (≈ 0.373 µM) | – | – | –
5 | CCCc1cc(-c2ccc([N+](=O)[O-])o2)c2cc(C)ccc2n1 [C3 H7 H NF H CH3 H H] | 5 to 10 (≈ 16.9 to 33.7 µM) | – | 1 (≈ 3.37 µM) | > 50 | – | –
6 | CCCc1cc(-c2ccc([N+](=O)[O-])o2)c2ccc(C)cc2n1 [C3 H7 H NF H H CH 3 H] | > 50 | > 50 | 5 (≈ 16.9 µM) | – | – | –
7 | Cc1ccc2nc(C(Br)(Br)Br)cc(-c3ccc([N+](=O)[O-])o3)c2c1 [CBr3 H NF H CH3 H H, 2-tribromomethyl-4-[2'-(5'-nitrofuryl)]-6-methyl quinoline] | > 50 | > 25 | 1 (≈ 1.98 µM) | – | – | –
8 | O=[N+]([O-])c1ccc(-c2cc(C(Br)(Br)Br)nc3ccccc23)o1 [CBr3 H NF H H H H, 2-tribromomethyl-4-[2'-(5'-nitrofuryl)]quinoline] | 30 to 50 (≈ 61.1 to 102 µM) | 10 (≈ 20.4 µM) | 0.5 (≈ 1.02 µM) | – | – | –
9 | O=[N+]([O-])c1ccc(-c2cc(CO)nc3ccccc23)o1 [CH2 OH H NF H H H H, 2-Hydroxymethyl-4-[2'-(5'-nitrofuryl)]quinoline] | 5 (≈ 18.5 µM) | 5 to 10 (≈ 18.5 to 37 µM) | 0.1 (≈ 0.37 µM) | – | – | –
10 | Cc1cc(-c2ccc([N+](=O)[O-])o2)c2c(C)ccc(N)c2n1 [CH3 H NF CH3 H H NH2] | > 50 | > 50 | 5 (≈ 17.6 µM) | – | – | –
11 | CCc1ccc2nc(C)cc(-c3ccc([N+](=O)[O-])o3)c2c1 [CH3 H NF H C2 H5 H H, 2-methyl-4-[2'-(5'-nitrofuryl)]-6-ethyl quinoline] | 25 (≈ 88.6 µM) | 25 (≈ 88.6 µM) | 0.1 (≈ 0.354 µM) | – | – | –
12 | Cc1cc(C)c2nc(C)cc(-c3ccc([N+](=O)[O-])o3)c2c1 [CH3 H NF H CH3 H CH3, 2,6,8-trimethyl-4-[2'-(5'-nitrofuryl)]quinoline] | > 50 | > 50 | 0.05 to 0.1 (≈ 0.177 to 0.354 µM) | – | – | –
13 | Cc1ccc2nc(C)cc(-c3ccc([N+](=O)[O-])o3)c2c1 [CH3 H NF H CH3 H H, 2-methyl-4-[2'-(5'-nitrofuryl)]-6-methyl quinoline] | 5 (≈ 18.6 µM) | 5 (≈ 18.6 µM) | 0.1 (≈ 0.373 µM) | – | – | –
14 | Cc1cc(-c2ccc([N+](=O)[O-])o2)c2cc(C(=O)O)c(O)cc2n1 [CH3 H NF H COOH OH H] | > 50 | > 50 | 10 (≈ 31.8 µM) | – | – | –
15 | Cc1ccc2c(-c3ccc([N+](=O)[O-])o3)cc(C)nc2c1 [CH3 H NF H H CH3 H, 2,7-dimethyl-4-[2'-(5'-nitrofuryl)]quinoline] | 3 (≈ 11.2 µM) | 2 to 5 (≈ 7.46 to 18.6 µM) | 0.05 to 0.1 (≈ 0.186 to 0.373 µM) | – | – | –
16 | Cc1cc(-c2ccc([N+](=O)[O-])o2)c2ccc(Cl)cc2n1 [CH3 H NF H H Cl H, 2-methyl-4-[2'-(5'-nitrofuryl)]-7-chloro quinoline] | 25 (≈ 86.6 µM) | 0.5 (≈ 1.73 µM) | 0.1 (≈ 0.346 µM) | – | – | –
17 | Cc1cc(-c2ccc([N+](=O)[O-])o2)c2cccc(C)c2n1 [CH3 H NF H H H CH3, 2,8-dimethyl-4-[2'-(5'-nitrofuryl)]quinoline] | 5 (≈ 18.6 µM) | > 50 | 0.3 (≈ 1.12 µM) | – | – | –
18 | Cc1cc(-c2ccc([N+](=O)[O-])o2)c2ccccc2n1 [CH3 H NF H H H H, 2-methyl-4-[2'-(5'-nitrofuryl)] quinoline] | 5 (≈ 19.7 µM) | 5 (≈ 19.7 µM) | 0.1 to 1 (≈ 0.393 to 3.93 µM) | – | – | –

Row | Compound | MIC [1, 4] [µg/mL] | MIC [2, 5] [µg/mL] | MIC [3, 6] [µg/mL] | MIC ([2]; 24 h) [µg/mL] | MIC ([1]; 24 h) [µg/mL] | MIC ([3]; 24 h) [µg/mL]
19 | Cc1cc(-c2ccc([N+](=O)[O-])o2)c2ccc(NC(=O)C(F)(F)F)c(C)c2n1 [CH3 H NF H H NHCOCF3 CH3] | > 50 | > 50 | 0.5 (≈ 1.32 µM) | – | – | –
20 | CC(=O)Nc1ccc2c(-c3ccc([N+](=O)[O-])o3)cc(C)nc2c1C [CH3 H NF H H NHCOCH3 CH3] | > 50 | > 50 | 1 (≈ 3.07 µM) | – | – | –
21 | CCOc1ccc2c(-c3ccc([N+](=O)[O-])o3)cc(C)nc2c1 [CH3 H NF H H OC2 H5 H, 2-methyl-4-[2'-(5'-nitrofuryl)]-7-ethoxy quinoline] | 25 (≈ 83.8 µM) | 5 (≈ 16.8 µM) | 0.1 (≈ 0.335 µM) | – | – | –
22 | Cc1cc(-c2ccc([N+](=O)[O-])o2)c2ccc(O)cc2n1 [CH3 H NF H H OH H, 2-methyl-4-[2'-(5'-nitrofuryl)]-7-hydroxy quinoline] | 10 (≈ 37 µM) | 5 (≈ 18.5 µM) | 0.1 (≈ 0.37 µM) | – | – | –
23 | CCCCOc1cc2nc(C)cc(-c3ccc([N+](=O)[O-])o3)c2cc1OCCCC [CH3 H NF H OC4 H9 OC4 H9 H] | > 50 | 10 (≈ 25.1 µM) | 5 (≈ 12.5 µM) | – | – | –
24 | COc1cc2nc(C)cc(-c3ccc([N+](=O)[O-])o3)c2cc1OC [CH3 H NF H OCH3 OCH3 H] | > 50 | 25 (≈ 79.5 µM) | 0.5 to 1 (≈ 1.59 to 3.18 µM) | – | – | –
25 | Cc1cc(-c2ccc([N+](=O)[O-])o2)c2cc3ccccc3cc2n1 [CH3 H NF H drawing 6 H, 2-methyl-4-[2'-(5'-nitrofuryl)]-6,7-benzoquinoline] | > 50 | > 10 | 5 (≈ 16.4 µM) | – | – | –
26 | Cc1cc(-c2ccc([N+](=O)[O-])o2)c2c([N+](=O)[O-])ccc(C)c2n1 [CH3 H NF NO2 H H CH3] | – | > 50 | – | – | > 50 | 0.5 to 1 (≈ 1.6 to 3.19 µM)
27 | COc1ccc(OC)c2c(-c3ccc([N+](=O)[O-])o3)cc(C)nc12 [CH3 H NF OCH3 H H OCH3, 2-methyl-4-[2'-(5'-nitrofuryl)]-5,8-dimethoxy quinoline] | > 50 | > 50 | 50 (≈ 159 µM) | – | – | –
28 | COc1cc(OC)c2c(-c3ccc([N+](=O)[O-])o3)cc(C)nc2c1 [CH3 H NF OCH3 H OCH3 H] | > 50 | > 50 | 0.5 (≈ 1.59 µM) | – | – | –
29 | CC(=O)OC(OC(C)=O)c1cc(-c2ccc([N+](=O)[O-])o2)c2ccccc2n1 [CH(OAc)2 H NF H H H H] | 25 to 50 (≈ 67.5 to 135 µM) | 5 (≈ 13.5 µM) | 0.1 (≈ 0.27 µM) | – | – | –
30 | CCN(CC)C(=O)c1cc(-c2ccc([N+](=O)[O-])o2)c2ccccc2n1 [CON(C2 H5)2 H NF H H H H, 4-[2'-(5'-nitrofuryl)]quinoline-2-carboxylic acid diethylamide] | > 50 | > 50 | 0.5 to 1 (≈ 1.47 to 2.95 µM) | – | – | –
31 | Cc1ccc2c(-c3ccc([N+](=O)[O-])o3)cc(C(=O)O)nc2c1 [COOH H 5NF H H CH3 H, 2-carboxy-4-[2'-(5'-nitrofuryl)]-7-methyl quinoline] | 50 (≈ 168 µM) | 25 (≈ 83.8 µM) | 0.5 (≈ 1.68 µM) | – | – | –
32 | COc1ccc2c(-c3ccc([N+](=O)[O-])o3)cc(C(=O)O)nc2c1 [COOH H 5NF H H OCH3 H] | 50 (≈ 159 µM) | 10 (≈ 31.8 µM) | 0.5 (≈ 1.59 µM) | – | – | –
33 | O=C(O)c1cc(-c2ccc([N+](=O)[O-])o2)c2ccccc2n1 [COOH H NF H H H H, 2-carboxy-4-[2'-(5'-nitrofuryl)]quinoline] | 30 to 50 (≈ 106 to 176 µM) | > 10 | 1 (≈ 3.52 µM) | – | – | –
34 | CCOc1ccc2c(-c3ccc([N+](=O)[O-])o3)cc(C(=O)O)nc2c1 [COOH H NF H H OC2 H5 H, 2-carboxy-4-[2'-(5'-nitrofuryl)]-7-ethoxy quinoline] | > 50 | 5 (≈ 15.2 µM) | 0.5 (≈ 1.52 µM) | – | – | –
35 | O=[N+]([O-])c1ccc(-c2ccnc3ccccc23)o1 [H H NF H H H H, 4-[2'-(5'-nitrofuryl)]quinoline] | 1 (≈ 4.16 µM) | 5 (≈ 20.8 µM) | 0.1 to 0.5 (≈ 0.416 to 2.08 µM) | – | – | –
36 | Cc1cc(-c2ccc([N+](=O)[O-])o2)nc2ccccc12 [NF H CH3 H H H H, 2-[2'-(5'-nitrofuryl)]-4-methyl quinoline] | 0.5 (≈ 1.97 µM) | 5 (≈ 19.7 µM) | 0.2 to 0.5 (≈ 0.787 to 1.97 µM) | – | – | –
